Where “and” joins values, the source holds several entries; their conditions need not be identical. Identical values can stand only once. Like-named read-outs stand apart in the source and are kept apart here.
Key:
[1] = first farm soil, duplicate columns A and B
[2] = From the text: The irrigation water at the second farm was from a different source than the first farm.
[3] = for Liquid Eluted after 60 min / Liquid Eluted after 120 min / Time (50 g of liquid, in min) / Liquid Eluted after 240 min: Ca formate 22 ppm by moles, average of two columns; for Liquid Eluted after 60 min / Liquid Eluted after 120 min / Time (50 g of liquid, in min): HCO2H 0.33% by weight
From the text: The objective was to investigate the behavior of different irrigation water treatments and determine the relative amounts of water that passed through the soil columns. The column retention times reflect the rate at which the liquid passes through the soil. Understanding these retention times provides insights about the transport and movement of irrigation water (and any fertilizers dissolved therein) through the soil, which has implications for the volume of water passing into and through the root zone, nutrient availability to crops, leaching of contaminants, and overall soil health.
The data in Table 1 is for the average of the two soil samples.

[4] = ICP and flow injection (FIA) analyses of solutions passed through soil columns, second farm; settings: single soil sample
[5] = cited from earlier work
[6] = first pass, dry soil, second farm (FIG. 3)
[7] = 1st pass, Alternating = formic acid pass
[8] = 2nd pass, Alternating = calcium formate pass
[9] = 3rd pass, Alternating = formic acid pass
[10] = 4th pass, Alternating = calcium formate pass
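For Mn in solution passed through soil column (ICP) in this document: eluate from PVC columns holding 100 g of dry ground farm soil, analysed by ICP-OES for element content after the solution had drained through, irrigation water measured as received for reference.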

O=C[O-].O=C[O-].[Ca+2] [Ca formate, calcium formate]
B in solution passed through soil column (ICP) ([1]; 1st pass): 4.35 ppm and 4.97 ppm | Ca in solution passed through soil column (ICP) ([1]; 1st pass): 135.1 ppm and 142.4 ppm | K in solution passed through soil column (ICP) ([1]; 1st pass): 10.81 ppm and 11.82 ppm | Mg in solution passed through soil column (ICP) ([1]; 1st pass): 53.6 ppm and 56.4 ppm | Mn in solution passed through soil column (ICP) ([1]; 1st pass): 1.95 ppm and 2.09 ppm | Na in solution passed through soil column (ICP) ([1]; 1st pass): 82.3 ppm and 88.9 ppm | P in solution passed through soil column (ICP) ([1]; 1st pass): 0.45 ppm and 0.36 ppm | S in solution passed through soil column (ICP) ([1]; 1st pass): 99.1 ppm and 103.0 ppm | Si in solution passed through soil column (ICP) ([1]; 1st pass): 26.5 ppm and 27.6 ppm | B in solution passed through soil column (ICP) ([1]; 2nd pass): 2.41 ppm and 2.40 ppm | Ca in solution passed through soil column (ICP) ([1]; 2nd pass): 26.6 ppm and 25.2 ppm | K in solution passed through soil column (ICP) ([1]; 2nd pass): 5.69 ppm and 5.73 ppm | Mg in solution passed through soil column (ICP) ([1]; 2nd pass): 10.4 ppm and 9.8 ppm | Mn in solution passed through soil column (ICP) ([1]; 2nd pass): 0.19 ppm and 0.22 ppm | Na in solution passed through soil column (ICP) ([1]; 2nd pass): 36.8 ppm and 38.2 ppm | P in solution passed through soil column (ICP) ([1]; 2nd pass): 0.40 ppm and 0.41 ppm | S in solution passed through soil column (ICP) ([1]; 2nd pass): 21.2 ppm and 19.6 ppm | Si in solution passed through soil column (ICP) ([1]; 2nd pass): 25.2 ppm and 26.2 ppm | B in solution passed through soil column (ICP) ([1]; 3rd pass): 1.74 ppm and 1.48 ppm | Ca in solution passed through soil column (ICP) ([1]; 3rd pass): 21.1 ppm and 19.4 ppm | K in solution passed through soil column (ICP) ([1]; 3rd pass): 6.01 ppm and 5.41 ppm | Mg in solution passed through soil column (ICP) ([1]; 3rd pass): 8.2 ppm and 7.6 ppm | Na in solution passed through soil column (ICP) ([1]; 3rd pass): 32.7 ppm and 31.1 ppm | P in solution passed through soil column (ICP) ([1]; 3rd pass): 0.68 ppm and 0.58 ppm | S in solution passed through soil column (ICP) ([1]; 3rd pass): 13.9 ppm and 13.0 ppm | Si in solution passed through soil column (ICP) ([1]; 3rd pass): 28.4 ppm and 26.2 ppm | B in solution passed through soil column (ICP) ([1]; 4th pass): 0.69 ppm and 0.73 ppm | Ca in solution passed through soil column (ICP) ([1]; 4th pass): 15.0 ppm and 15.9 ppm | K in solution passed through soil column (ICP) ([1]; 4th pass): 5.09 ppm and 5.06 ppm | Mg in solution passed through soil column (ICP) ([1]; 4th pass): 5.9 ppm and 6.0 ppm | Mn in solution passed through soil column (ICP) ([1]; 4th pass): 0.05 ppm and 0.04 ppm | Na in solution passed through soil column (ICP) ([1]; 4th pass): 21.6 ppm and 22.9 ppm | P in solution passed through soil column (ICP) ([1]; 4th pass): 0.56 ppm | S in solution passed through soil column (ICP) ([1]; 4th pass): 5.3 ppm and 5.5 ppm | Si in solution passed through soil column (ICP) ([1]; 4th pass): 22.3 ppm and 22.7 ppm | Liquid retained by the soil samples on average [2, 6]: 43 to 44 mL | Time at which solution had completed passing through the soil column on average [2, 6]: about 240 minutes | Time of first appearance of liquid from the columns on average [2, 6]: 20 to 30 min | Amount of liquid passed through the columns compared with irrigation water at the same lengths of time ([2]; first pass, second farm, from 20-30 minutes up to 240 minutes): more than three times as much | Time at which solution had completed passing through the soil column on average ([2]; second pass, wet/damp soil, second farm (FIG. 4)): about 390 minutes | Drainage Rate: Time (50 g), percentage relative to irrigation water ([3]; 1st pass, first farm soil): 66.7% | Drainage Rate: liquid eluted at 60 mins, percentage relative to irrigation water ([3]; 1st pass, first farm soil): 180% | Drainage Rate: liquid eluted at 120 mins, percentage relative to irrigation water ([3]; 1st pass, first farm soil): 152% | Liquid Eluted after 60 min ([3]; 1st pass, first farm soil): 28.6 g | Liquid Eluted after 120 min ([3]; 1st pass, first farm soil): 53.9 g | Time (50 g of liquid, in min) ([3]; 1st pass, first farm soil): 120 min | Drainage Rate: Time (50 g), percentage relative to irrigation water ([3]; 2nd pass, first farm soil): 66.7% | Drainage Rate: liquid eluted at 60 mins, percentage relative to irrigation water ([3]; 2nd pass, first farm soil): 157% | Drainage Rate: liquid eluted at 120 mins, percentage relative to irrigation water ([3]; 2nd pass, first farm soil): 150% | Drainage Rate: liquid eluted at 240 min, percentage relative to irrigation water ([3]; 2nd pass, first farm soil): 137% | Liquid Eluted after 60 min ([3]; 2nd pass, first farm soil): 33.3 g | Liquid Eluted after 120 min ([3]; 2nd pass, first farm soil): 59.9 g | Time (50 g of liquid, in min) ([3]; 2nd pass, first farm soil): 120 min | Liquid Eluted after 240 min ([3]; 2nd pass, first farm soil): 98.5 g | Drainage Rate: Time (50 g), percentage relative to irrigation water ([3]; 3rd pass, first farm soil): 83.3% | Drainage Rate: liquid eluted at 60 mins, percentage relative to irrigation water ([3]; 3rd pass, first farm soil): 138% | Drainage Rate: liquid eluted at 120 mins, percentage relative to irrigation water ([3]; 3rd pass, first farm soil): 135% | Drainage Rate: liquid eluted at 240 min, percentage relative to irrigation water ([3]; 3rd pass, first farm soil): 131% | Liquid Eluted after 60 min ([3]; 3rd pass, first farm soil): 26.4 g | Liquid Eluted after 120 min ([3]; 3rd pass, first farm soil): 48.8 g | Time (50 g of liquid, in min) ([3]; 3rd pass, first farm soil): 150 min | Liquid Eluted after 240 min ([3]; 3rd pass, first farm soil): 86.7 g | Drainage Rate: Time (50 g), percentage relative to irrigation water ([3]; 4th pass, first farm soil): 83.3% | Drainage Rate: liquid eluted at 60 mins, percentage relative to irrigation water ([3]; 4th pass, first farm soil): 123% | Drainage Rate: liquid eluted at 120 mins, percentage relative to irrigation water ([3]; 4th pass, first farm soil): 118% | Drainage Rate: liquid eluted at 240 min, percentage relative to irrigation water ([3]; 4th pass, first farm soil): 110% | Liquid Eluted after 60 min ([3]; 4th pass, first farm soil): 24.1 g | Liquid Eluted after 120 min ([3]; 4th pass, first farm soil): 44.6 g | Time (50 g of liquid, in min) ([3]; 4th pass, first farm soil): 150 min | Liquid Eluted after 240 min ([3]; 4th pass, first farm soil): 75.0 g | Liquid retained by the soil samples on average ([3]; first pass, dry soil, first farm, 100 ml added (FIG. 1)): about 36 ml | Improvement in amount of liquid eluted compared to the irrigation water ([3]; fixed periods 60, 120 and 240 mins, first farm soil): 110-180% | B in solution passed through soil column (ICP) [4, 7]: 0.5 ppm | Ca in solution passed through soil column (ICP) [4, 7]: 76.1 ppm | Cl^− in solution passed through soil column (FIA) [4, 7]: 288.0 ppm | K in solution passed through soil column (ICP) [4, 7]: 4.5 ppm | Mg in solution passed through soil column (ICP) [4, 7]: 19.6 ppm | NO3^− in solution passed through soil column (FIA) [4, 7]: 0.0 ppm | Na in solution passed through soil column (ICP) [4, 7]: 169.0 ppm | P in solution passed through soil column (ICP) [4, 7]: 1.0 ppm | S in solution passed through soil column (ICP) [4, 7]: 51.4 ppm | Si in solution passed through soil column (ICP) [4, 7]: 26.3 ppm | B in solution passed through soil column (ICP) [4, 8]: 0.3 ppm | Ca in solution passed through soil column (ICP) [4, 8]: 24.0 ppm | Cl^− in solution passed through soil column (FIA) [4, 8]: 92.1 ppm | K in solution passed through soil column (ICP) [4, 8]: 2.5 ppm | Mg in solution passed through soil column (ICP) [4, 8]: 6.1 ppm | NO3^− in solution passed through soil column (FIA) [4, 8]: 0.0 ppm | Na in solution passed through soil column (ICP) [4, 8]: 110.4 ppm | P in solution passed through soil column (ICP) [4, 8]: 1.1 ppm | S in solution passed through soil column (ICP) [4, 8]: 14.8 ppm | Si in solution passed through soil column (ICP) [4, 8]: 26.9 ppm | B in solution passed through soil column (ICP) [4, 9]: 0.2 ppm | Ca in solution passed through soil column (ICP) [4, 9]: 21.7 ppm | Cl^− in solution passed through soil column (FIA) [4, 9]: 91.9 ppm | K in solution passed through soil column (ICP) [4, 9]: 2.4 ppm | Mg in solution passed through soil column (ICP) [4, 9]: 5.5 ppm | NO3^− in solution passed through soil column (FIA) [4, 9]: 0.0 ppm | Na in solution passed through soil column (ICP) [4, 9]: 96.4 ppm | P in solution passed through soil column (ICP) [4, 9]: 1.0 ppm | S in solution passed through soil column (ICP) [4, 9]: 10.3 ppm | Si in solution passed through soil column (ICP) [4, 9]: 24.3 ppm | B in solution passed through soil column (ICP) [4, 10]: 0.2 ppm | Ca in solution passed through soil column (ICP) [4, 10]: 30.4 ppm | Cl^− in solution passed through soil column (FIA) [4, 10]: 93.6 ppm | K in solution passed through soil column (ICP) [4, 10]: 2.4 ppm | Mg in solution passed through soil column (ICP) [4, 10]: 7.5 ppm | NO3^− in solution passed through soil column (FIA) [4, 10]: 0.0 ppm | Na in solution passed through soil column (ICP) [4, 10]: 95.4 ppm | P in solution passed through soil column (ICP) [4, 10]: 0.9 ppm | S in solution passed through soil column (ICP) [4, 10]: 10.1 ppm | Si in solution passed through soil column (ICP) [4, 10]: 23.3 ppm

[Fe+2] [Fe^+2]
Solubility with anion CO3^−2 [5]: VSS (VSS means very slightly soluble (20-2,000 ppm)) | Solubility with anion CO3^−2 ([5]; listed as Fe^+3): I (I means insoluble (<20 ppm)) | Solubility with anion Cl^− ([5]; anion Cl^−): S (S means soluble (over 5,000 ppm)) | Solubility with anion HCO3^− [5]: SS (SS means slightly soluble (2,000 to 5,000 ppm)) | Solubility with anion HCO3^− ([5]; listed as Fe^+3): I (I means insoluble (<20 ppm)) | Solubility with anion NO3^− ([5]; anion NO3^−): S (S means soluble (over 5,000 ppm)) | Solubility with anion OH^− [5]: VSS (VSS means very slightly soluble (20-2,000 ppm)) | Solubility with anion OH^− ([5]; listed as Fe^+3): I (I means insoluble (<20 ppm)) | Solubility with anion PO4^−3 ([5]; anion PO4^−3): I (I means insoluble (<20 ppm)) | Solubility with anion SO4^−2 ([5]; anion SO4^−2): S (S means soluble (over 5,000 ppm)) | Solubility with anion S^−2 ([5]; anion S^−2): I (I means insoluble (<20 ppm))

From patent publication US12686652B2, “Methods of increasing irrigation water and fertilizer delivery to soil using formic acid and formate salts, making a formate salt from carbon dioxide, and generating a carbon credit” (Deerpoint Group, Inc., priority 2023, dated 2026)
